{"source": "patent US20140242174A1", "about": "“TREATING COUGH AND TUSSIVE ATTACKS” (VERONA PHARMA PLC, priority 2011, published 2014)", "key": {"[1]": {"tested_on": "intractable, persistent cough due to interstitial lung disease", "test": "Double blind, randomized, placebo-controlled, cross-over clinical study of inhaled carcainium chloride", "assay_type": "in vivo, human", "from_the_text": "The aim of the clinical study was to determine the clinical effectiveness and safety of carcainium chloride by the inhaled route in hospital in-patients with intractable, persistent cough due to interstitial lung disease.\nA double blind, randomized, placebo-controlled, cross-over study design was used to assess the effect of carcainium chloride as an anti-tussive in patients with interstitial lung disease.\nThe study was constructed as an adaptive contingency trial. In such a trial the outcome of each “test” of the drug against placebo is scored as either a positive or negative result (i.e. a binary decision, rather than a quantitative measure). Based on the outcome of this “test”, the trial either continues or halts. Patients attended two study visits where they were randomised to receive either: • carcainium chloride at a dose of 1.0 mg/kg on the first study visit followed by placebo (sodium chloride 0.9%) on the second visit; or • placebo (sodium chloride 0.9%) on the first visit followed by carcainium chloride at 1.0 mg/kg on the second visit.\nAssessment of each patient was based on the following criteria. • 1 A physician's professional judgment of individual patient responses in a double blind crossover study with carcainium chloride and placebo in terms of anti-tussive action. • 2. Each patient's subjective comfort using a visual analogue scale (VAS), pre- and post-treatment. • 3. Each patient's coughs recorded in pre- and post-treatment periods for active and placebo treatments.\nCarcainium chloride is a fine white dry powder and was provided in tightly closed vessels and stored in dark at room temperature upon receipt. The vehicle used for the dilution of carcainium chloride and for the placebo was 0.9% NaCl injection.\nPatients were then administered the active or placebo sample, according to the above schedule, as an aerosol generated using an ultrasonic nebulizer (DeVilbiss Ultraneb).\nIn 8 out of 8 trials, the two physicians acting in concert successfully identified the active treatment carcainium chloride. The outcome of this assessment or “test” after each study treatment administered was either a success in which an ‘anti-tussive’ effect was observed (i.e. positive) or a failure which was defined as no change from baseline or pro-tussive effect (i.e. negative). The clinical investigator decided on a positive or negative outcome for each “test” in a blinded fashion. The statistical significance of this finding is <0.05 by contingency table, 0.05-0.01 by Chi square.\nThis was assessed on a 0-10 equal interval scale in the pre-drug and post-drug periods for active drug and placebo periods.\nThe frequency of cough (number per unit time) was recorded using a semi-automated system which records cough epochs (sounds) that are counted by a qualified technician."}, "[2]": {"test": "LC/MS/MS measurement of carcainium chloride concentrations in human plasma", "assay_type": "in vivo", "details": "patients administered 1 mg/kg carcainium chloride by inhalation; K2EDTA plasma", "protocol": "A liquid chromatography/tandem mass spectrometry (LC/MS/MS) assay method was developed, qualified, and implemented for the quantitation of carcainium chloride levels in K2EDTA human plasma samples collected from the human clinical study detailed above.\nInitially, carcainium chloride was dissolved in deionized water to provide an initial standard or quality control (QC) stock solution at a concentration of 1000 μg/mL. Serial dilutions were carried out with deionized water to provide secondary stock solutions for subsequent preparation of plasma calibration standards or QC samples according to Table 1 below. The internal standard lidocaine was dissolved in deionized water to provide an initial stock solution at a concentration of 1000 μg/mL. The initial internal standard stock solution was then serially diluted with deionized water to provide a spiking stock solution concentration of 50 ng/mL.\nA 10 μL aliquot of calibration standard stock solution or QC stock solution was transferred into individual 16×100 mm screw cap glass test tubes. For blank and blank with internal standard samples, 10 μL of deionized water was transferred instead. Human blank K2EDTA plasma (100 μL) was then added to each tube. A 50 μL aliquot of lidocaine internal standard spiking stock solution was transferred to each tube except for blank samples. A 50 μL aliquot of deionized water was added to blank samples. […]"}, "irritant-induced cough": {"tested_on": "irritant-induced cough", "details": "healthy human volunteers; Phase II; cited from earlier work"}}, "data": [{"smiles": "C[N+](C)(CC(=O)Nc1ccccc1)CC(=O)Nc1ccccc1.[Cl-]", "note": "[carcainium chloride, N,N-Bis-(phenylcarbamoylmethyl) dimethylammonium chloride]", "values": [{"measurement": "Drug related adverse side effects in the human clinical study", "setting": "[1]; 1 mg/kg inhaled", "result": "no significant drug related adverse side effects"}, {"measurement": "Number of coughs recorded electronically (frequency of cough)", "setting": "[1]; 1.0 mg/kg inhaled vs placebo, p=0.0007", "result": "statistically significant treatment effect"}, {"measurement": "Patient comfort score (VAS, 0-10 scale), pre- and post-drug", "setting": "[1]; 1.0 mg/kg inhaled vs placebo, p=0.0140 by sum of signed ranks", "result": "statistically significant improvement in patient well-being"}, {"measurement": "Physician assessment: trials in which the two physicians successfully identified the active treatment (anti-tussive effect)", "setting": "[1]; 1.0 mg/kg inhaled, ultrasonic nebulizer, vs placebo 0.9% NaCl, blinded, significance <0.05 by contingency table, 0.05-0.01 by Chi square", "result": "8 out of 8"}, {"measurement": "Anti-tussive activity, summary of the clinical study", "setting": "[1]; preliminary analysis, all three measures statistically significant", "result": "marked anti-tussive activity"}, {"measurement": "Concentration of carcainium chloride in plasma samples", "setting": "[2]", "result": "1 to 50", "unit": "ng/mL"}, {"measurement": "melting point", "result": "177 to 178", "unit": "°C"}, {"measurement": "Ability to inhibit cough (increase of the amount of irritant required to induce cough)", "setting": "irritant-induced cough", "result": "no statistically significant ability to inhibit cough"}]}]}
